For series [1], the system named is rat. The note with it: Sub-acute repeat dose toxicity, sprague dawley, Oral, Gavage/Intubation, dose end: 28 day, group: systemic.
Series [2] has as its system rat. To be noted: Prenatal developmental toxicity study, sprague dawley, Dermal, Topical, dose end: 15 GD.
For the next series, the system named is dog. To be noted: Subchronic oral toxicity in nonrodent, beagle, Feed, dose end: 13 week, group: systemic.
The test system of series [3] is mouse. The note with it: Combined chronic toxicity/carcinogenicity, b6c3f1, Oral, Feed, dose end: 18 month, group: systemic.
Series [4] deals with mouse. To be noted: Sub-acute repeat dose toxicity, b6c3f1, Oral, Feed, dose end: 28 day, group: systemic.
Series [5] has as its system rat. To be noted: Neurotoxicity screening battery, other, Oral, Feed, dose end: 90 day, group: cannot be grouped.
In series [6] the test system is rat. The note with it: Sub-acute repeat dose toxicity; other; Oral; Feed; dose end: 28 day; group: systemic; systemic / clinical chemistry / glucose / glucose + systemic / in life observation / body weight / body weight + systemic / in life ….
For series [7], the system named is mouse. The note with it: Subchronic oral toxicity in rodents, b6c3f1, Feed, dose end: 90 day, group: systemic, systemic / organ weight / liver / absolute + systemic / organ weight / liver / relative to body weight + systemic / organ weight / liver / ….
For series [8], the system named is rat. To be noted: Combined chronic toxicity/carcinogenicity; sprague dawley; Oral; Feed; dose end: 2 year; group: systemic; systemic / in life observation / body weight / body weight + systemic / in life observation / body weight / body weight gain + systemic / in….
Series [9] concerns rat. The note with it: Prenatal developmental toxicity study, sprague dawley, Dermal, Topical, dose end: 15 GD, group: maternal.
Where [10] appears, read: systemic / clinical chemistry / phosphorus / phosphorus + systemic / clinical chemistry / bilirubin / total bilirubin + systemic / pathology….
[11] abbreviates: systemic / pathology gross / uterus / fluid contents.
The mark [12] stands for this setting: group: developmental, developmental / developmental malformation / bone / absent + developmental / developmental malformation / bone / fused + developmental / ….
The mark [13] stands for this setting: group: maternal, reproductive / reproductive performance / resorptions / resorptions + systemic / in life observation / body weight / body weight gain + ….
Where [14] appears, read: group: maternal, systemic / in life observation / clinical signs / desquamation.
Setting [15] is: systemic / hematology / platelet / platelet.
[16] abbreviates: systemic / hematology / platelet / platelet + systemic / in life observation / body weight / body weight gain + systemic / clinical ….
[17] abbreviates: systemic / pathology microscopic / liver / hepatocellular adenoma + systemic / pathology microscopic / liver / hepatocellular carcinoma + ….
Setting [18] is: systemic / pathology microscopic / kidney / hypertrophy.
[19] abbreviates: systemic / pathology microscopic / kidney / hypertrophy + systemic / in life observation / mortality / mortality.
Setting [20] is: systemic / in life observation / body weight / body weight + systemic / in life observation / body weight / body weight gain + systemic / in….
Where [21] appears, read: reproductive / reproductive performance / aborted / aborted + reproductive / reproductive performance / resorptions / resorptions + systemic….
Where [22] appears, read: systemic / in life observation / clinical signs / desquamation + systemic / in life observation / clinical signs / urine, discoloration.

Structures are written as SMILES.

A word on the LOAEL: it is the lowest dose or exposure tested at which an adverse effect was seen. For orientation: NOAEL means the highest dose or exposure tested at which no adverse effect was seen. Turning to `O=C([O-])CNCO.[Na+]` [Glycine, N-(hydroxymethyl)-, monosodium salt], in the series with rat [1] (setting [10]), the LOAEL worked out at 640 mg/kg/day and the NOAEL turned out to be 160 mg/kg/day. In addition, in the series on rat [1] (setting [11]), the LEL was determined as 40 mg/kg/day and the NEL is less than 40 mg/kg/day.
Regarding `CN1CCCC1=O` [N-Methyl-2-pyrrolidone], the LEL in the series with rat [2] (setting [12]) was found to be 750 mg/kg/day; with rat [2] (setting [14]), 75 mg/kg/day; with dog (setting [15]) it was 25 mg/kg/day; in the series with mouse [3] (systemic / organ weight / liver / absolute + systemic / organ weight / liver / relative to body weight + systemic / pathology microscopic / …), 173 mg/kg/day; in the series on mouse [4] (setting [18]) it was 2130 mg/kg/day; in the series with rat [5] (setting [20]), 433 mg/kg/day. Moreover, the LEL turned out to be 1230 mg/kg/day with rat [6], 619 mg/kg/day with mouse [7], 678 mg/kg/day in the series with rat [8] and 500 mg/kg/day in the series on rat [9] (setting [22]). Further, the LOAEL in the series on rat [2] (setting [12]) was more than 750 mg/kg/day; in the series on rat [2] (setting [13]), more than 750 mg/kg/day; in the series with dog (setting [16]) it was more than 250 mg/kg/day; with mouse [3] (setting [17]), more than 1090 mg/kg/day; in the series with mouse [4] (setting [18]) it was 2130 mg/kg/day; in the series on rat [5] (systemic / in life observation / body weight / body weight + systemic / in life observation / body weight / body weight gain), 433 mg/kg/day. The LOAEL in the series with rat [6] was 1230 mg/kg/day; in the series on mouse [7], 619 mg/kg/day; with rat [8], more than 678 mg/kg/day; in the series on rat [9] (setting [21]), more than 2500 mg/kg/day. Besides, the NEL in the series on rat [2] (setting [12]) was 237 mg/kg/day; with rat [2] (setting [14]), less than 75 mg/kg/day; with dog (setting [15]), less than 25 mg/kg/day; with mouse [3] (setting [17]) it was 89 mg/kg/day; with mouse [4] (setting [19]), 720 mg/kg/day; in the series with rat [5] (setting [20]) it was 169 mg/kg/day. Moreover, the NEL is 429 mg/kg/day in the series on rat [6], 277 mg/kg/day in the series on mouse [7], 207 mg/kg/day with rat [8] and less than 500 mg/kg/day with rat [9] (setting [22]). For the same molecule, the NOAEL was not below 750 mg/kg/day in the series with rat [2] (setting [12]); not below 750 mg/kg/day in the series with rat [2] (setting [13]); not below 250 mg/kg/day in the series with dog (setting [16]); not below 1090 mg/kg/day with mouse [3] (setting [17]); 720 mg/kg/day in the series on mouse [4] (setting [19]); 169 mg/kg/day with rat [5] (setting [20]). Further, the NOAEL in the series with rat [6] was 429 mg/kg/day; in the series on mouse [7], 277 mg/kg/day; with rat [8] it was not below 678 mg/kg/day; in the series on rat [9] (setting [21]), not below 2500 mg/kg/day.

These data come from EPA's ToxRefDB 2.
